The results in this text go back to patent US8796256B2 (Janssen Pharmaceutica NV, priority 2010, dated 2014).

For the experiment, the target named is T1, ERR1 (also known as ERR-α or ERR-1) (Homo sapiens, UniProt P11474).
T1 sequence (P11474 193-421 limits assumed): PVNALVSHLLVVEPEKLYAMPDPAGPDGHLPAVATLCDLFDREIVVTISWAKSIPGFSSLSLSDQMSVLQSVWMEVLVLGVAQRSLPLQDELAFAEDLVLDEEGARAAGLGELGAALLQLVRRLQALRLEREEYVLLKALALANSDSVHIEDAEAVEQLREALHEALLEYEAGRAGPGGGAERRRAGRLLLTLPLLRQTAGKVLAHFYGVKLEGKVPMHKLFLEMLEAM
Description: TR-FRET assay (disruption of co-activator peptide binding to ERR1 LBD). It counts as biochemical. Particulars: 6 nM 6His-ERR1LBD, 6 nM GST-SRC-2 peptide; average of 3 independent experiments. In short, it runs like this:
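Homogeneous TR-FRET measuring displacement of GST-hSRC2 co-activator peptide (6 nM) from His-tagged ERR1 LBD (6 nM), detected with α-GST Eu cryptate (30 nM) and α-His-XL665 (7.5 nM). Buffer 25 mM Tris pH 8, 2.5 mM Hepes, 20 mM KCl, 1 mM DTT, 0.05 mg/mL delipidated BSA; equilibration 4-18 h at 25° C. Hyperbolic dose-response fit, mean of 3 experiments.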
For orientation: TR-FRET usually uses a lanthanide donor and a delayed reading to cut background.
Broadly, the EC50 is the concentration needed to bring the measured effect to its halfway point. For `CC(=O)Nc1nc(CN2C(=O)S/C(=C\c3ccc4c(cnn4Cc4ccc(Cl)cc4C(F)(F)F)c3)C2=O)cs1` [Compound 413, N-(4-{[(5Z)-5-({1-[4-Chloro-2-(trifluoromethyl)benzyl]-1H-indazol-5-yl}methylidene)-2,4-dioxo-1,3-thiazolidin-3-yl]methyl}-1,3-thiazol-2-yl)acetamide], a half-maximal effect (EC50) was put at 312 nM.
For `CS(=O)(=O)CCN1CCC[C@H]1CN1C(=O)S/C(=C\c2ccc3c(cnn3Cc3ccc(Cl)cc3C(F)(F)F)c2)C1=O` [Compound 159, (5Z)-5-({1-[4-Chloro-2-(trifluoromethyl)benzyl]-1H-indazol-5-yl}methylidene)-3-({(2S)-1-[2-(methylsulfonyl)ethyl]pyrrolidin-2-yl}methyl)-1,3-thiazolidine-2,4-dione], the EC50 was determined as 87 nM. Compared with the last compound, the EC50 is about 3.6-fold lower.
The compound `COC(=O)N1CCN(CCN2C(=O)S/C(=C\c3ccc4c(cnn4Cc4ccc(Cl)cc4C(F)(F)F)c3)C2=O)S1(=O)=O` [Compound 339, Methyl 5-{2-[(5Z)-5-({1-[4-chloro-2-(trifluoromethyl)benzyl]-1H-indazol-5-yl}methylidene)-2,4-dioxo-1,3-thiazolidin-3-yl]ethyl}-1,2,5-thiadiazolidine-2-carboxylate 1,1-dioxide] gave an EC50 of 106 nM.
Next, `CN1C[C@@H](N2C(=O)S/C(=C\c3ccc4c(cnn4Cc4ccc(Cl)cc4C(F)(F)F)c3)C2=O)[C@@H](F)C1` (relative stereo) [Compound 323, (5Z)-5-({1-[4-Chloro-2-(trifluoromethyl)benzyl]-1H-indazol-5-yl}methylidene)-3-[cis-4-fluoro-1-methylpyrrolidin-3-yl]-1,3-thiazolidine-2,4-dione]: 54 nM; `O=C1S/C(=C\c2ccc3c(cnn3Cc3ccc(C(F)(F)F)cc3C(F)(F)F)c2)C(=O)N1O` [Compound 291, (5Z)-5-({1-[2,4-Bis(trifluoromethyl)benzyl]-1H-indazol-5-yl}methylidene)-3-hydroxy-1,3-thiazolidine-2,4-dione]: 47 nM.
`CN1CC(N2C(=O)S/C(=C\c3ccc4c(cnn4Cc4ccc(Cl)cc4C(F)(F)F)c3)C2=O)C1` [Compound 133, (5Z)-5-({1-[4-Chloro-2-(trifluoromethyl)benzyl]-1H-indazol-5-yl}methylidine)-3-(1-methylazetidin-3-yl)-1,3-thiazolidine-2,4-dione] had a concentration giving a half-maximal response (EC50) of 20 nM. This EC50 lies about 2.4-fold lower than the previous one.
`COC1CCN(S(=O)(=O)NC(=O)CN2C(=O)S/C(=C\c3ccc4c(cnn4Cc4ccc(Cl)cc4C(F)(F)F)c3)C2=O)CC1` [Compound 58, 2-[(5Z)-5-({1-[4-chloro-2-(trifluoromethyl)benzyl]-1H-indazol-5-yl}methylidene)-2,4-dioxo-1,3-thiazolidin-3-yl]-N-[(4-methoxypiperidin-1-yl)sulfonyl]acetamide] registered a concentration for a half-maximal effect (EC50) of 44 nM.
Consider `O=C1S/C(=C\c2ccc3c(cnn3Cc3ccc(Cl)cc3C(F)(F)F)c2)C(=O)N1Cc1cc(O)no1` [Compound 138, (5Z)-5-({1-[4-Chloro-2-(trifluoromethyl)benzyl]-1H-indazol-5-yl}methylidene)-3-[(3-hydroxyisoxazol-5-yl)methyl]-1,3-thiazolidine-2,4-dione], for which it took 42 nM to reach a half-maximal effect (EC50).
In turn, `CNN1C(=O)S/C(=C\c2ccc3c(cnn3Cc3ccc(Cl)cc3C(F)(F)F)c2)C1=O` [Compound 358, (5Z)-5-({1-[4-Chloro-2-(trifluoromethyl)benzyl]-1H-indazol-5-yl}methylidene)-3-(methylamino)-1,3-thiazolidine-2,4-dione] registered an EC50 of 22 nM.
The same measure for `NS(=O)(=O)NCCN1C(=O)S/C(=C\c2ccc3c(cnn3Cc3ccc(Cl)cc3C(F)(F)F)c2)C1=O` [Compound 50, N-{2-[(5Z)-5-({1-[4-Chloro-2-(trifluoromethyl)benzyl]-1H-indazol-5-yl}methylidene)-2,4-dioxo-1,3-thiazolidin-3-yl]ethyl}sulfamide]: 40 nM.
Compound `O=C1S/C(=C\c2ccc3c(cnn3Cc3ccc(Cl)cc3C(F)(F)F)c2)C(=O)N1Cc1ncc[nH]1` [Compound 403, (5Z)-5-({1-[4-Chloro-2-(trifluoromethyl)benzyl]-1H-indazol-5-yl}methylidene)-3-(1H-imidazol-2-ylmethyl)-1,3-thiazolidine-2,4-dione] registered an EC50 of 20 nM. This EC50 lies about 2-fold lower than the previous one.
Compound `CS(=O)(=O)CCN1C(=O)S/C(=C\c2ccc3c(cnn3Cc3ccc(Cl)cc3C(F)(F)F)c2)C1=O` [Compound 129, (5Z)-5-({1-[4-Chloro-2-(trifluoromethyl)benzyl]-1H-indazol-5-yl}methylidene)-3-[2-(methylsulfonyl)ethyl]-1,3-thiazolidine-2,4-dione] had an EC50 of 18 nM.
`COc1ccc(Cn2nc(C)c3cc(/C=C4\SC(=O)N(CCN5CCOCC5)C4=O)ccc32)c(C(F)(F)F)c1` [Compound 20, (5Z)-5-({1-[4-Methoxy-2-(trifluoromethyl)benzyl]-3-methyl-1H-indazol-5-yl}methylidene)-3-(2-morpholin-4-ylethyl)-1,3-thiazolidine-2,4-dione] showed an EC50 of 14 nM. The EC50 values of the last two compounds are within 1.5-fold of each other.
For the compound `CCOC(=O)[C@@H]1CCC[C@H]1N1C(=O)S/C(=C\c2ccc3c(cnn3Cc3ccc(Cl)cc3C(F)(F)F)c2)C1=O` [Compound 141, Ethyl (1R,2R)-2-[(5Z)-5-({1-[4-chloro-2-(trifluoromethyl)benzyl]-1H-indazol-5-yl}methylidene)-2,4-dioxo-1,3-thiazolidin-3-yl]cyclopentanecarboxylate], the EC50 was 183 nM.
`O=C1S/C(=C\c2ccc3c(cnn3Cc3ccc(C(F)(F)F)cc3C(F)(F)F)c2)C(=O)N1C[C@H]1COCCN1` [Compound 196, (5Z)-5-({1-[2,4-Bis(trifluoromethyl)benzyl]-1H-indazol-5-yl}methylidene)-3-[(3S)-morpholin-3-ylmethyl]-1,3-thiazolidine-2,4-dione] returned an EC50 of 50 nM.
Compound `O=C1S/C(=C\c2ccc3c(cnn3Cc3ccc(Cl)cc3C(F)(F)F)c2)C(=O)N1Cc1nccn1S(=O)(=O)C(F)(F)F` [Compound 411, (5Z)-5-({1-[4-Chloro-2-(trifluoromethyl)benzyl]-1H-indazol-5-yl}methylidene)-3-({1-[(trifluoromethyl)sulfonyl]-1H-imidazol-2-yl}methyl)-1,3-thiazolidine-2,4-dione] returned an EC50 of 29 nM. Against the preceding compound, the EC50 is about 1.7-fold lower.
For `CCN1CC[C@@H](N2C(=O)S/C(=C\c3ccc4c(cnn4Cc4ccc(C(F)(F)F)cc4C(F)(F)F)c3)C2=O)[C@H](F)C1` (relative stereo) [Compound 336, (5Z)-5-({1-[2,4-Bis(trifluoromethyl)benzyl]-1H-indazol-5-yl}methylidene)-3-[trans-1-ethyl-3-fluoropiperidin-4-yl]-1,3-thiazolidine-2,4-dione], the EC50 stood at 293 nM. This EC50 lies about 10-fold higher than the previous one.
Regarding `O=C1S/C(=C\c2ccc3c(cnn3Cc3ccc(Cl)cc3C(F)(F)F)c2)C(=O)N1C[C@@H]1C[C@@H](O)CN1CCO` [Compound 186, (5Z)-5-({1-[4-Chloro-2-(trifluoromethyl)benzyl]-1H-indazol-5-yl}methylidene)-3-{[(2S,4R)-4-hydroxy-1-(2-hydroxyethyl)pyrrolidin-2-yl]methyl}-1,3-thiazolidine-2,4-dione], a half-maximal effect (EC50) was put at 54 nM. This EC50 lies about 5.4-fold lower than the previous one.
`CS(=O)(=O)NN1C(=O)S/C(=C\c2ccc3c(cnn3Cc3ccc(C(F)(F)F)cc3C(F)(F)F)c2)C1=O` [Compound 360, N-[(5Z)-5-({1-[2,4-Bis(trifluoromethyl)benzyl]-1H-indazol-5-yl}methylidene)-2,4-dioxo-1,3-thiazolidin-3-yl]methanesulfonamide] showed an EC50 of 26 nM.
As for `O=C1S/C(=C\c2ccc3c(cnn3Cc3ccc(Cl)cc3C(F)(F)F)c2)C(=O)N1CC1CNC1` [Compound 101, (5Z)-3-(Azetidin-3-ylmethyl)-5-({1-[4-chloro-2-(trifluoromethyl)benzyl]-1H-indazol-5-yl}methylidene)-1,3-thiazolidine-2,4-dione], the EC50 was found to be 68 nM. This EC50 is about 2.6-fold higher than that of the compound before.
On to `O=C1S/C(=C\c2ccc3c(cnn3Cc3ccc(C(F)(F)F)cc3C(F)(F)F)c2)C(=O)N1[C@@H]1CCNC[C@H]1O` (relative stereo) [Compound 271, (5Z)-5-({1-[2,4-Bis(trifluoromethyl)benzyl]-1H-indazol-5-yl}methylidene)-3-[trans-3-hydroxypiperidin-4-yl]-1,3-thiazolidine-2,4-dione], for which the EC50 came out at 38 nM. Against the preceding compound, the EC50 is about 1.8-fold lower.
In turn, `COC(=O)C(Cc1cccnc1)N1C(=O)S/C(=C\c2ccc3c(cnn3Cc3ccc(Cl)cc3C(F)(F)F)c2)C1=O` (stereo not drawn) [Compound 217, Methyl 2-[(5Z)-5-({1-[4-chloro-2-(trifluoromethyl)benzyl]-1H-indazol-5-yl}methylidene)-2,4-dioxo-1,3-thiazilidin-3-yl]-3-pyridin-3-ylpropanoate] came in with an EC50 of 41 nM.
The compound `CN(C)CCCN1C(=O)S/C(=C\c2ccc3c(ccn3Cc3ccc(Cl)cc3C(F)(F)F)c2)C1=O` [Compound 244, (5Z)-5-[(1-{[4-Chloro-2-(trifluoromethyl)phenyl]methyl}-1H-indol-5-yl)methylidene]-3-[3-(dimethylamino)-propyl]-1,3-thiazolidine-2,4-dione] gave an EC50 of 50 nM.
Next, `O=C1S/C(=C\c2ccc3c(cnn3Cc3ccc(Cl)cc3C(F)(F)F)c2)C(=O)N1CC1(F)CCN(CCO)CC1` [Compound 305, (5Z)-5-({1-[4-Chloro-2-(trifluoromethyl)benzyl]-1H-indazol-5-yl}methylidene)-3-{[4-fluoro-1-(2-hydroxyethyl)piperidin-4-yl]methyl}-1,3-thiazolidine-2,4-dione]: 3 nM.
